Measurements taken from patent US20050074844A1, “Methods for identifying markers of antimicrobial compounds” (priority 2002, published 2005).
In brackets after ≈: the same amount, converted by molar mass. Where a SMILES comes first, the peptide text is derived from it.

Tests used:
[1] = tested on: Bacillus subtilis strain BGSC1A2; experiment: Growth curve (optical density at 600 nm) of shake flask cultures treated with sub-inhibitory antibiotic concentrations; format: cell-based; conditions: for growth rate as measured by optical density at 600 nm: all sub-inhibitory concentrations tested (Table 3), versus untreated cultures
Description: Bacillus subtilis strain BGSC1A2 was streaked onto a LB agar plate and incubated overnight at 37° C. The cultured plate was stored at room temperature for up to one week. Fifty ml of MHB medium in a 250 ml flask was inoculated with one colony from the plate. The culture was incubated overnight at 37° C. and 200 rpm.
A 30.7 ml sample of the overnight culture was used to inoculate 3.6 liters of MHB medium pre-warmed at 37° C. After mixing the culture well, 600 ml aliquots were removed and placed into each of six 2.8 liter baffled shake flasks. A 1 ml sample of each flask was taken for optical density measurement at 600 nm, and the shake flasks were incubated at 37° C. and 200 rpm. One ml samples were taken from each flask every 30 minutes until the OD600 reached 0.2. At this point, which was designated time zero, 100 ml samples from each shake flask were taken, and 50 ml aliquots were placed in each of two 50 ml centrifuge tubes. In addition, 1.1 ml aliquots were taken from each flask with 1 ml used for an optical density measurement at 600 nm and 50 μl of each was placed in a microfuge tube at 4° C. The 50 ml samples were processed immediately by centrifugation at 4000 rpm at 4° C. for 7 minutes, and after centrifugation the supernatant was decanted being careful not to disturb the pellet which was immediately placed at −80° C. for total RNA isolation at a later time.
(§1) At time zero, different sub-inhibitory concentrations (0.1-1×MIC) of a given antibiotic were added to three of the shake flasks (Table 2) and the other three shake flasks were untreated. The shake flasks were incubated at 37° C. and 200 rpm. At times 5, 15, 30 and 60 minutes after antibiotic addition, 100 ml and 1.1 ml samples were taken from each shake flask and processed as described above. After the 60 minute time point, 1.1 ml aliquots from each shake flask were taken every hour for four hours for optical density and cell viability measurements.

[2] = tested on: Bacillus subtilis BGSC1A2; experiment: microbe, parasite or virus in culture
Description: Microbroth dilution assays were performed as described in NCCLS M7-A5 (Vol. 20, No. 2). The assay was performed in a sterile 96 well plate, and the total volume per well was 100 μl. […] The inoculum was prepared by culturing Bacillus subtilis BGSC1A2 overnight in MHB medium at 35° C. with shaking at 200 rpm. The following day 0.5 ml of the overnight culture was used to inoculate MHB medium to obtain a culture in logarithmic phase growth as described in NCCLS M7-A5 (Vol. 20, No. 2) and M26-A (Vol. 19, No. 18). The actual colony forming units per well was confirmed by plating onto TSA or LB agar. Two wells were inoculated for a given concentration. The plates were incubated for 16 to 20 hours at 35° C. The MIC was defined as that concentration of antibiotic resulting in no visible growth of the organism.

[3] = tested on: Bacillus subtilis strain BGSC1A2; experiment: Cell viability (colony forming units per ml) of cultures treated with sub-inhibitory antibiotic concentrations; format: cell-based; conditions: for colony forming units or viability: all sub-inhibitory concentrations tested (Table 3), versus untreated cultures
Description: as §1, with “At time zero, different sub-inhibitory concentrations (0.1-1×MIC) of a given antibiotic were added to three of the shake flasks (Table 2) and the other three shake flasks were untreated.” left out
Cell viability was determined on all the samples by determining colony forming units per ml. Samples collected were diluted in MHB to obtain 10 to 500 colonies per plate as follows: samples collected at t=0 were diluted at 1:100,000; t=5 minutes, dilution was 1:150,000; t=15 minutes, dilution was 1:200,000; t=30 minutes, dilution was 1:250,000; t=1 hour, dilution was 1:300,000; t=1.5 hours, dilution was 1:400,000; t=2.5 hours, dilution was 1:800,000; and t=3.5 hours, dilution was 1:1,000,000. These dilutions factors can be changed as indicated by the response to the antibiotic being tested. For each diluted sample 20 μl and 40 μl aliquots were spread onto each of two pre-warmed LB agar plates, which were incubated overnight at 37° C. The number of colonies on each plate was counted to determine the colony forming units per ml of each sample.

[4] = tested on: Bacillus subtilis strain BGSC1A2; experiment: Growth curve (optical density at 600 nm) of shake flask cultures treated with sub-inhibitory antibiotic concentrations; format: cell-based; conditions: 0.01 and 0.02 x MIC (0.0025 and 0.005 μg/ml)

Compound	MIC ([2]; Bacillus subtilis, BGSC1A2)	colony forming units or viability [3]	growth rate as measured by optical density at 600 nm [1]	further results
CC(=O)OCC1=C(C(=O)O)N2C(=O)[C@@H](NC(=O)Cc3cccs3)[C@H]2SC1 [cephalothin]	0.0156 to 0.0625 µg/mL (≈ 0.0393 to 0.158 µM)	decrease in colony forming units or viability		growth rate as measured by optical density ([1]; 0.00156 μg/ml (0.1 x MIC)): very little effect, if any; growth rate as measured by optical density ([1]; 0.0078 μg/ml (0.50 x MIC)): moderate decrease; growth rate as measured by optical density ([1]; 0.0156 μg/ml (1.0 x MIC)): large
O=C(N[C@H](CO)[C@H](O)c1ccc([N+](=O)[O-])cc1)C(Cl)Cl [chloramphenicol]	2 to 4 µg/mL (≈ 6.19 to 12.4 µM)			
O=C(O)c1cn(C2CC2)c2cc(N3CCNCC3)c(F)cc2c1=O [ciprofloxacin]		decrease in colony forming units or viability		
CC[C@H]1OC(=O)[C@H](C)[C@@H](O[C@H]2C[C@@](C)(OC)[C@@H](O)[C@H](C)O2)[C@H](C)[C@@H](O[C@@H]2O[C@H](C)C[C@H](N(C)C)[C@H]2O)[C@](C)(O)C[C@@H](C)C(=O)[C@H](C)[C@@H](O)[C@]1(C)O [erythromycin]	0.125 to 0.25 µg/mL (≈ 0.17 to 0.341 µM)	decrease in colony forming units or viability	decrease in growth rate that was dose dependent	
CC(C)C[C@@H](NC(=O)[C@H](C)NC(=O)CNC(=O)[C@@H](NC=O)C(C)C)C(=O)N[C@@H](C)C(=O)N[C@@H](C(=O)N[C@H](C(=O)N[C@@H](C(=O)N[C@@H](Cc1c[nH]c2ccccc12)C(=O)N[C@H](CC(C)C)C(=O)N[C@@H](Cc1c[nH]c2ccccc12)C(=O)N[C@H](CC(C)C)C(=O)N[C@@H](Cc1c[nH]c2ccccc12)C(=O)N[C@H](CC(C)C)C(=O)N[C@@H](Cc1c[nH]c2ccccc12)C(=O)NCCO)C(C)C)C(C)C)C(C)C [gramicidin A] (HELM PEPTIDE1{[O=C[*:2]].V.G.A.[dL].A.[dV].V.[dV].W.[dL].W.[dL].W.[dL].W.[OCCN[*:1]]}$$$$V2.0; N-terminus and C-terminus assumed)				MIC ([2]; BGSC1A2): 8.0 µg/mL (≈ 4.25 µM)
CCn1cc(C(=O)O)c(=O)c2ccc(C)nc21 [nalidixic acid]	4 µg/mL (≈ 17.2 µM)			
CCn1cc(C(=O)O)c(=O)c2cc(F)c(N3CCNCC3)cc21 [norfloxacin]	0.5 µg/mL (≈ 1.57 µM)	decrease in colony forming units or viability	very little effect, if any	
CO[C@@H]1[C@@H](OC(N)=O)[C@@H](O)[C@H](Oc2ccc3c(O)c(NC(=O)c4ccc(O)c(CC=C(C)C)c4)c(=O)oc3c2C)OC1(C)C [novobiocin]	2 µg/mL (≈ 3.26 µM)			
CO[C@H]1/C=C/O[C@@]2(C)Oc3c(C)c(O)c4c(O)c(c(/C=N/N5CCN(C)CC5)c(O)c4c3C2=O)NC(=O)/C(C)=C\C=C\[C@H](C)[C@H](O)[C@@H](C)[C@@H](O)[C@@H](C)[C@H](OC(C)=O)[C@@H]1C [rifampin]	0.25 to 0.5 µg/mL (≈ 0.304 to 0.608 µM)			growth rate as measured by optical density [4]: very little effect if any; colony forming units ([3]; 0.01 or 0.02 x MIC (0.0025 and 0.005 μg/ml)): no effect on colony forming units
[H]/N=C(/N)N[C@H]1[C@H](O)[C@@H](O)[C@H](O[C@@H]2O[C@@H](C)[C@](O)(C=O)[C@H]2O[C@@H]2O[C@@H](CO)[C@H](O)[C@@H](O)[C@@H]2NC)[C@@H](N/C(N)=N\[H])[C@@H]1O [streptomycin]	4 to 8 µg/mL (≈ 6.88 to 13.8 µM)	decrease in colony forming units or viability		growth rate as measured by optical density ([1]; 0.8 μg/ml (0.1 x MIC)): growth rate similar to the untreated cultures; growth rate as measured by optical density ([1]; 4.0 μg/ml (0.50 x MIC)): moderate decrease in growth rate; growth rate as measured by optical density ([1]; 8.0 μg/ml (1.0 x MIC)): large
COc1cc(Cc2cnc(N)nc2N)cc(OC)c1OC [trimethoprim]	0.25 µg/mL (≈ 0.861 µM)	did not lead to a change in colony forming units or viability	did not have an effect on growth rate	
CN[C@H](CC(C)C)C(=O)N[C@H]1C(=O)N[C@@H](CC(N)=O)C(=O)N[C@H]2C(=O)N[C@H]3C(=O)N[C@H](C(=O)N[C@H](C(=O)O)c4cc(O)cc(O)c4-c4cc3ccc4O)[C@H](O)c3ccc(c(Cl)c3)Oc3cc2cc(c3O[C@@H]2O[C@H](CO)[C@@H](O)[C@H](O)[C@H]2O[C@H]2C[C@](C)(N)[C@H](O)[C@H](C)O2)Oc2ccc(cc2Cl)[C@H]1O [vancomycin]	0.125 to 0.25 µg/mL (≈ 0.0863 to 0.173 µM)	no effect on viability	very little effect, if any	
gentamicin		decrease in colony forming units or viability	very little effect if any	MIC ([2]; no visible growth after 16 to 20 hours at 35° C., MHB medium): 0.125 to 0.25 µg/mL
munumbicin B		decrease in colony forming units or viability		
